The test system of one test is Haemonchus contortus L3. In words: Haemonchus contortus, Larvae Stage 3 (HcL3) In Vitro Assay. Particulars: Haemonchus contortus.
Test [1] deals with T1, bovine vesicular acetylcholine transporter (VAChT) (Bos taurus, UniProt E1BK36).
T1 sequence (E1BK36 1-524): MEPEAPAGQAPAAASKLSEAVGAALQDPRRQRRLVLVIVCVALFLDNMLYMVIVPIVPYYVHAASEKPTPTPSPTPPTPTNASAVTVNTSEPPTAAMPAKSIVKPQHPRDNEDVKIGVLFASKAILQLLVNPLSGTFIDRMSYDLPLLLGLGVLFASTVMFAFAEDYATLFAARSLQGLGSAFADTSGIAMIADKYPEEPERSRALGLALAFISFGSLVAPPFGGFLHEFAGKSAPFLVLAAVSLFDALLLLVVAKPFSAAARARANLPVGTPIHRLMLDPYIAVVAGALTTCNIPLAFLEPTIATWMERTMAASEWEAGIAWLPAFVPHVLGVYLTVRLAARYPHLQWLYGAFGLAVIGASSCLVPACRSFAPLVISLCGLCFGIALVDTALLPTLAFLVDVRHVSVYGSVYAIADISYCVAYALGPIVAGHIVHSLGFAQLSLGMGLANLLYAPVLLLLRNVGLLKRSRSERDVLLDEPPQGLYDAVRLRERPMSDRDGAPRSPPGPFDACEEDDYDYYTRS
In words: Radioligand Binding Assay. Conditions: Bovine binding Ki, CHO-K1 membranes with recombinant bovine VAChT, [3H]Compound X6 0.3 nM.

Test [2] has as its system Dirofilaria immitis microfilariae. In words: Dirofilaria immitis, Microfilariae (DiMF) In Vitro Assay.
[3] abbreviates: 96 h, read-out: HcL3 MEC, Minimal Effective Concentration whereby worm motility is inhibited by approximately 70%, 37° C., tested 0.001-100 μM.
The mark [4] stands for this setting: Dirofilaria immitis, 72 h, read-out: Di MF, MEC, decrease in microfilariae motility by visual assessment, curve starting at 100 μM.
The mark [5] stands for this setting: 96 hours, 37° C., read-out: HcL3 MEC.
The mark [6] stands for this setting: Dirofilaria immitis, 72 hours, read-out: Di MF.

In general, Ki refers to the dissociation constant of the complex between target and ligand, obtained from inhibition or displacement.

Each structure is given as a SMILES string. Like-named read-outs stand apart in the source and are kept apart here.

As to `CN(C)c1ccc2c(c1)C1(CCN(C/C=C/c3ccc(Cl)c(Cl)c3)CC1)CN2C(=O)NCc1ccnc(Cl)c1` [Example 137, (E)-N-((2-chloropyridin-4-yl)methyl)-1′-(3-(3,4-dichlorophenyl)allyl)-5-(dimethylamino)spiro[indoline-3,4′-piperidine]-1-carboxamide], the minimal effective concentration in the test on Haemonchus contortus L3 (setting [3]) stood at 3.3 µM; in test [2] (setting [4]), 10 µM. Moreover, the Ki in test [1] came out at 516 nM.
On the same counts, the results for `O=C(NCc1ccnc(Cl)c1)N1CC2(CCN(C/C=C/c3ccc(C(F)(F)F)cc3)CC2)c2ccc(C(F)(F)F)cc21` [Example 138, (E)-N-((2-chloropyridin-4-yl)methyl)-6-(trifluoromethyl)-1′-(3-(4-(trifluoromethyl)phenyl)allyl)spiro[indoline-3,4′-piperidine]-1-carboxamide] are 3.3 µM, 10 µM and 57.2 nM.
The like results for `O=C(NCc1ccnc(Cl)c1)N1CC2(CCN(Cc3ccc4cc(F)ccc4c3)CC2)c2cc(Cl)ccc21` [Example 139, 5-chloro-N-((2-chloropyridin-4-yl)methyl)-1′-((6-fluoronaphthalen-2-yl)methyl)spiro[indoline-3,4′-piperidine]-1-carboxamide] were, in that order, 3.3 µM, 33 µM and 20.1 nM.
As for `O=C(NCc1ccnc(Cl)c1)N1CC2(CCN(C/C=C/c3ccc(Cl)cc3)CC2)c2c1ccc(F)c2Cl` [Example 140, (E)-4-chloro-1′-(3-(4-chlorophenyl)allyl)-N-((2-chloropyridin-4-yl)methyl)-5-fluorospiro[indoline-3,4′-piperidine]-1-carboxamide], the minimal effective concentration stood at 3.3 µM in the test on Haemonchus contortus L3 (setting [5]) and 5.7 µM in test [2] (setting [6]). The inhibition constant (Ki) in test [1] amounted to 95.2 nM.
On the same counts, the results for `O=C(NCc1ccnc(Cl)c1)N1CC2(CCN(C/C=C/c3ccc(F)cc3)CC2)c2cc(Cl)c(Cl)cc21` [Example 141, (E)-5,6-dichloro-N-((2-chloropyridin-4-yl)methyl)-1′-(3-(4-fluorophenyl)allyl)spiro[indoline-3,4′-piperidine]-1-carboxamide] are 3.3 µM, 4.4 µM and 164 nM.
Take `O=C(NCc1ccnc(Cl)c1)N1CC2(CCN(C/C=C/c3ccc(Cl)cc3)CC2)c2cc(Cl)c(Cl)cc21` [Example 142, (E)-5,6-dichloro-1′-(3-(4-chlorophenyl)allyl)-N-((2-chloropyridin-4-yl)methyl)spiro[indoline-3,4′-piperidine]-1-carboxamide]: the minimal effective concentration in the test with Haemonchus contortus L3 (setting [5]) was 3.3 µM; in test [2] (setting [6]), 7.6 µM. The Ki in test [1] is 107 nM.
On the same counts, the results for `O=C(NCc1ccnc(Cl)c1)N1CC2(CCN(C/C=C/c3ccc(F)cc3)CC2)c2c1ccc(Cl)c2Cl` [Example 143, (E)-4,5-dichloro-N-((2-chloropyridin-4-yl)methyl)-1′-(3-(4-fluorophenyl)allyl)spiro[indoline-3,4′-piperidine]-1-carboxamide] are 3.3 µM, 5.7 µM and 114 nM.
On the same counts, the results for `O=C(NCc1ccnc(Cl)c1)N1CC2(CCN(C/C=C/c3ccc(Cl)cc3)CC2)c2c1ccc(Cl)c2Cl` [Example 144, (E)-4,5-dichloro-1′-(3-(4-chlorophenyl)allyl)-N-((2-chloropyridin-4-yl)methyl)spiro[indoline-3,4′-piperidine]-1-carboxamide] are 3.3 µM, 10 µM and 26.2 nM.
For `O=C(NCc1ccnc(Cl)c1)N1CC2(CCN(C/C=C/c3ccc(C(F)(F)F)cc3)CC2)c2cc(F)c(Cl)cc21` [Example 145, (E)-6-chloro-N-((2-chloropyridin-4-yl)methyl)-5-fluoro-1′-(3-(4-(trifluoromethyl)phenyl)allyl)spiro[indoline-3,4′-piperidine]-1-carboxamide], the figures for the minimal effective concentration (in the test with Haemonchus contortus L3 (setting [3]); in test [2] (setting [4])) were 3.3 µM and 5.7 µM, respectively. For the same molecule, the inhibitory constant (Ki) in test [1] turned out to be 47.4 nM.
The like results for `O=C(NCc1ccnc(Cl)c1)N1CC2(CCN(C/C=C/c3ccc(Cl)c(Cl)c3)CC2)c2c1ccc(F)c2Cl` [Example 146, (E)-4-chloro-N-((2-chloropyridin-4-yl)methyl)-1′-(3-(3,4-dichlorophenyl)allyl)-5-fluorospiro[indoline-3,4′-piperidine]-1-carboxamide] were, in that order, 3.3 µM, 5.7 µM and 21.7 nM.
As to `O=C(NCc1ccnc(Cl)c1)N1CC2(CCN(C/C=C/c3ccc(Cl)cc3)CC2)c2cc(OC(F)(F)F)ccc21` [Example 147, (E)-1′-(3-(4-chlorophenyl)allyl)-N-((2-chloropyridin-4-yl)methyl)-5-(trifluoromethoxy)spiro[indoline-3,4′-piperidine]-1-carboxamide], the minimal effective concentration amounted to 3.9 µM in the test with Haemonchus contortus L3 (setting [3]) and 4.8 µM in test [2] (MEC, decrease in microfilariae motility by visual assessment, 72 hours, curve starting at 100 μM, read-out: Di MF). The Ki in test [1] came out at 322 nM.
Regarding `O=C(NCc1ccnc(F)c1)N1CC2(CCN(C/C=C/c3ccc(Cl)cc3)CC2)c2c(OC(F)(F)F)ccc(Cl)c21` [Example 148, (E)-7-chloro-1′-(3-(4-chlorophenyl)allyl)-N-((2-fluoropyridin-4-yl)methyl)-4-(trifluoromethoxy)spiro[indoline-3,4′-piperidine]-1-carboxamide], the minimal effective concentration in the test with Haemonchus contortus L3 (setting [3]) is 100 µM; in test [2] (setting [4]) it was 3.3 µM. Moreover, the inhibitory constant (Ki) in test [1] is 2480 nM.
Take `O=C(NCc1ccnc(Cl)c1)N1CC2(CCN(C/C=C/c3ccc(Cl)cc3)CC2)c2c1cccc2C(F)(F)F` [Example 149, (E)-1′-(3-(4-chlorophenyl)allyl)-N-((2-chloropyridin-4-yl)methyl)-4-(trifluoromethyl)spiro[indoline-3,4′-piperidine]-1-carboxamide]: the minimal effective concentration was 5.1 µM with Haemonchus contortus L3 (setting [3]) and 8.1 µM in test [2] (setting [4]). Further, the inhibition constant Ki in test [1] is 396 nM.
The like results for `O=C(NCc1ccnc(Cl)c1)N1CC2(CCN(C/C=C/c3ccc(Cl)cc3)CC2)c2cc(OC(F)(F)F)c(Cl)cc21` [Example 150, (E)-6-chloro-1′-(3-(4-chlorophenyl)allyl)-N-((2-chloropyridin-4-yl)methyl)-5-(trifluoromethoxy)spiro[indoline-3,4′-piperidine]-1-carboxamide] were, in that order, 5.7 µM, 18.2 µM and 297 nM.
On the same counts, the results for `O=C(NCc1ccnc(Cl)c1)N1CC2(CCN(C/C=C/c3ccc(C(F)(F)F)cn3)CC2)c2cc(C(F)(F)F)ccc21` [Example 151, (E)-N-((2-chloropyridin-4-yl)methyl)-5-(trifluoromethyl)-1′-(3-(5-(trifluoromethyl)pyridin-2-yl)allyl)spiro[indoline-3,4′-piperidine]-1-carboxamide] are 5.7 µM, 4.3 µM and 518 nM.
The like results for `O=C(NCc1ccnc(Cl)c1)N1CC2(CCN(C/C=C/c3ccc(C(F)(F)F)cc3)CC2)c2c1cccc2C(F)(F)F` [Example 152, (E)-N-((2-chloropyridin-4-yl)methyl)-4-(trifluoromethyl)-1′-(3-(4-(trifluoromethyl)phenyl)allyl)spiro[indoline-3,4′-piperidine]-1-carboxamide] were, in that order, 5.7 µM, 4.4 µM and 1320 nM.
For `O=C(NCc1ccnc(Cl)c1)N1CC2(CCN(C/C=C/c3ccc(F)cc3)CC2)c2c1cccc2C(F)(F)F` [Example 153, (E)-N-((2-chloropyridin-4-yl)methyl)-1′-(3-(4-fluorophenyl)allyl)-4-(trifluoromethyl)spiro[indoline-3,4′-piperidine]-1-carboxamide], the minimal effective concentration worked out at 5.7 µM in the test with Haemonchus contortus L3 (setting [3]) and 7.6 µM in test [2] (setting [4]). Also, in test [1], the inhibition constant (Ki) turned out to be 218 nM.
As to `O=C(NCc1ccnc(Cl)c1)N1CC2(CCN(C/C=C/c3ccc(F)cc3)CC2)c2cc(C(F)(F)F)ccc21` [Example 154, (E)-N-((2-chloropyridin-4-yl)methyl)-1′-(3-(4-fluorophenyl)allyl)-5-(trifluoromethyl)spiro[indoline-3,4′-piperidine]-1-carboxamide], the minimal effective concentration in the test with Haemonchus contortus L3 (setting [5]) is 6.6 µM; in test [2] (setting [6]), 2.8 µM. Moreover, the Ki in test [1] was 283 nM.
Take `Cc1c(F)ccc2c1C1(CCN(C/C=C/c3ccc(Cl)cc3)CC1)CN2C(=O)NCc1ccnc(Cl)c1` [Example 155, (E)-1′-(3-(4-chlorophenyl)allyl)-N-((2-chloropyridin-4-yl)methyl)-5-fluoro-4-methylspiro[indoline-3,4′-piperidine]-1-carboxamide]: the minimal effective concentration was 7.3 µM in the test with Haemonchus contortus L3 (setting [3]) and 3.3 µM in test [2] (setting [4]). Moreover, in test [1], the Ki was found to be 74.8 nM.

For the origin of these results see patent US20160296499A1, “Spiroindoline Antiparasitic Derivatives” (ZOETIS SERVICES LLC, priority 2013, published 2016).
